From patent US10143686B2, “Oxidosqualene cyclase as a protein target for anticancer therapeutics” (The Curators of the University of Missouri, priority 2010, dated 2018)
Where a name gives a salt, the structure may show the parent alone. Read-outs that look alike come from different tables or passages of the source.

Assays:
[1] = system: DU145 prostate cancer cells; test: SRB cell viability assay, DU145; assay type: cell-based; details: Homo sapiens
Method: (§1) The effect of OSC inhibition was evaluated in additional cancer cell lines as well. Cancer cell lines may be purchased from ATCC (Manassas, Va.). The SRB assay has been employed for determination of the inhibitory effects of RO 48-8071 on growth of different cancer cells. Cells were seeded into 96-well plates and incubated overnight at 37° C. with 5% CO2. The culture medium was removed after 24 hours, and cells were washed with DMEM/F12 medium and then treated with various concentrations of RO 48-8071 in 5% FBS culture medium for 24 and 48 hours. Surviving or adherent cells were fixed in situ by withdrawing the growth medium, adding 100 μl PBS and 100 μl 50% trichloroacetic acid and then incubating at 4° C. for one hour. Cells were washed with ice-cold water, dried at room temperature (RT), and then stained with 50 μl 4% SRB for eight minutes at RT. Unbound dye was removed by washing with cold 1% acetic acid for five times, and plates were dried at RT. Bound stain was solubilized with 150 μl 10 mM Tris buffer and absorbance of samples was read at 520 nm with a SpecTRA MAX 190 microplate reader (Molecular Devices, Sunnyvale, Calif.). Six wells were used for each concentration, and each experiment was performed two to three times.
Effect of RO 48-8071 on prostate cancer cell line DU145 viability. […] The culture mediums employed 10% FBS EMEM for culture and 5% FBS EMEM for treatment.

H69AR lung cancer cells = test: SRB cell viability assay, H69AR; assay type: cell-based; details: Homo sapiens
Method: as §1
Effect of RO 48-8071 on lung cancer cell line H69AR viability. […] The culture mediums employed 20% FBS RPMI-1640 for culture and 10% FBS RPMI-1640 for treatment.

[2] = system: BT-474 breast cancer cells; test: SRB cell viability assay, BT-474; assay type: cell-based, human; details: for IC50: Homo sapiens, BT-474, Breast (ER+ PR+)
Method: (§2) The sulforhodamine B (SRB) assay was employed to evaluate the effect of OSC inhibitor Ro 48-8071 on viability of breast cancer and normal mammary gland cells with slight modification of the original procedure established at NCI. Accordingly, the cells were seeded in 96-well plates in 100 μl culture medium and incubated overnight at 37° C. with 5% CO2. […] The surviving or adherent cells were fixed in situ by withdrawing the growth medium and adding 100 μl of PBS and 100 μl of 50% cold trichloroacetic acid and then incubating at 4° C. for 1 h. The surviving cells were washed with ice-water, dried at room temperature (RT), and then stained with 50 μl 4% SRB for 8 min at RT. Unbound dye was removed by washing 5 times with cold 1% acetic acid, and the plates were dried at RT. Bound stain was solubilized with 150 μl 10 mM Tris buffer, and absorbance of samples were measured at 520 nm with a SpecTRA MAX 190 microplate reader (Sunnyvale, Calif.). In these experiments on BT-474, T47-D, and AG11132A cell lines, six wells were used for each concentration, and each experiment was performed at least twice.
as §1
Effect of RO 48-8071 on breast cancer cell line BT-474 viability. […] The culture mediums employed 10% FBS DMEM/F12 for culture and 5% FBS DMEM/F12 for treatment.

[3] = system: BxPC-3 pancreatic cancer cells; test: SRB cell viability assay, BxPC-3; assay type: cell-based; details: Homo sapiens, BxPC-3, Pancreas
Method: as §1
Effect of RO 48-8071 on pancreatic cancer cell line BxPC-3 viability. […]

[4] = system: BT-474 human breast cancer xenograft; test: BT-474 breast tumor xenograft in nude mice
Method: Female athymic nu/nu nude mice, 5 to 6 weeks-old (18-22 g) were purchased from Harland Sprague-Dawley, Inc. Nude mice were inoculated with 17-β-Estradiol pellets (1.7 mg/pellet, 60 days release) 48 hours before inoculating tumor cells. BT-474 human breast cancer cells, 5×10^6 in 0.15 ml solution mixed with matrigel and DMEM/F12 medium (4/1, v/v) were injected into each flank of mouse subcutaneously and both flanks of each mouse were injected. When tumor volume reached around 100 mm3, animal were randomly assigned to three groups and the treatment started with RO 48-8071 (5 mg/kg/day or 10 mg/kg/day) via tail-vein injection for five days, followed by same treatment every other day for five additional times as shown in the FIG. 13A. Animals in control group received the vehicle alone under identical conditions. Tumor volumes were measured by a digital caliper and calculated using the formula (L×W×H)×0.5236.
Animal weight was monitored throughout the experiment.

[5] = system: normal mammary AG11132A cells; test: SRB cell viability assay, normal mammary cells; assay type: cell-based; details: 24 hours, FIG. 3
Method: as §2

[6] = system: BT-20 breast cancer cells; test: SRB cell viability assay, BT-20; assay type: cell-based; details: Homo sapiens, BT-20, Breast (triple negative)
Method: as §1
Effect of RO 48-8071 on estrogen, progesterone, and HER-2/neu receptors negative breast cancer cell line MDA-231 and BT-20 viability. […]

[7] = system: MCF-7 breast cancer cells; test: SRB cell viability assay, MCF-7; assay type: cell-based; details: Homo sapiens, MCF7, MCF-7, Breast (ER+ PR+)
Method: as §1
Effect of RO 48-8071 on breast cancer cell line MCF-7 viability. […]

[8] = system: Capan-1 pancreatic cancer cells; test: SRB cell viability assay, Capan-1; assay type: cell-based; details: Homo sapiens, Capan-1, Pancreas
Method: as §1
Effect of RO 48-8071 on pancreatic cancer cell line Capan-1 viability. […] The culture mediums employed 20% FBS IMDM for culture and 10% FBS IMDM for treatment.

[9] = 24 hours, read-out: IC50 (μM) (24 hours)
[10] = 48 hours, read-out: IC50 (μM) (48 hours)

C=CCN(C)CCCCCCOc1ccc(C(=O)c2ccc(Br)cc2)c(F)c1 [Ro 48-8071, 4′-[6-(Allylmethylamino)hexyloxy]-4-bromo-2′-fluorobenzophenone fumarate]
IC50 ([1]; DU-145, 24 hours, read-out: IC50 (μM) (24 hours)): 13.5 ± 0.895 µM | IC50 ([1]; DU-145, 48 hours, read-out: IC50 (μM) (48 hours)): 8.61 ± 0.455 µM | IC50 (H69AR lung cancer cells; [9]): 10.8 ± 0.609 µM | IC50 (H69AR lung cancer cells; [10]): 8.11 ± 0.355 µM | effect on cell viability (SRB) ([2]; BT-474, 24 hours, dose-dependent, FIG. 2A): significantly inhibit the viability | IC50 [2, 9]: 9.514 ± 0.05 µM | IC50 [2, 10]: 6.06 ± 0.233 µM | IC50 [3, 9]: 11.4 ± 0.621 µM | IC50 [3, 10]: 7.11 ± 0.102 µM | tumor volume versus control group ([4]; 5 or 10 mg/kg/day, tail-vein injection, P<0.05 ANOVA, FIG. 13A): Significant differences were observed compared with control group | toxicity at doses used for inhibiting tumor growth ([4]; BT-474 tumor-bearing nude mice): non-toxic | animal weight, control versus treated groups ([4]; BT-474 tumor-bearing nude mice, FIG. 13B): No significant difference | inhibition of normal mammary cell viability compared with BT-474 [5]: significantly less inhibition | IC50 [6, 9]: 15.8 ± 0.335 µM | IC50 [6, 10]: 12.7 ± 0.18 µM | IC50 [7, 9]: 12.3 ± 0.585 µM | IC50 [7, 10]: 6.33 ± 0.344 µM | IC50 [8, 9]: 18.6 ± 1.62 µM | IC50 [8, 10]: 13.7 ± 0.168 µM
